In PMC6332446, “Acylphloroglucinol Derivatives from the South African Helichrysum niveum and Their Biological Activities” (Molecules, 2015):

Columns and labels:
[1] = ORAC assay, hydroxyl radical absorbance capacity (ORACOH); conditions: trolox equivalents; H2O2 0.3%, Cu2+ 18 μM, 37 °C; ± % STDEV
Method: (§1) Automated Oxygen Radicals Absorbance Capacity (ORAC) Assay: ORAC was measured according to the method previously described. The method measures the antioxidant scavenging capacity for (a) peroxyl radicals generated by thermal decomposition of 2,2ʹ-azobis ([…]) dihydrochloride (AAPH; ORACROO assay); (b) hydroxyl radical (ORACOH assay), generated by H2O2-Cu^2+ (H2O2, 0.3%; Cu^2+ [as CuSO4], 18 μM, or (c) Cu^2+ [as CuSO4], 18 μM as a transition metal oxidant at 37 °C. ORAC values were expressed as micromoles of trolox equivalents (TE) per milligram of test sample, except when Cu^2+ (without H2O2) was used as an oxidant in the assay. In the presence of Cu^2+ without H2O2, test samples acted as prooxidants rather than antioxidants in the ORAC assay. The copper-initiated prooxidant activity was calculated using [(AreaBlank − AreaSample)/AreaBlank] × 100 and expressed as prooxidant units; one unit equals the prooxidant activity that reduces the area under the fluorescein decay curve by 1% in the ORAC assay.

[2] = Copper-initiated prooxidant activity in the ORAC assay; conditions: Cu2+ 18 μM without H2O2, 37 °C; one unit = 1% reduction of area under fluorescein decay curve
Method: as §1

mushroom tyrosinase = experiment: Tyrosinase enzyme assay; format: biochemical; conditions: L-Tyrosine substrate; samples screened at 100.00 μg/mL upper limit
Method: Tyrosinase Enzyme Assay: The tyrosinase inhibitory activity was measured using the spectrophotometric method previously described. Samples were dissolved in DMSO to a stock solution of 1 mg/mL, and further dilutions were then done with 50 mM sodium phosphate buffer (pH 6.5) for all working solutions. […] In the wells of a 96-well plate, 70 µL of each sample working solution was combined with 30 μL of tyrosinase (500 Units/mL in sodium phosphate buffer) in triplicate. After incubation at room temperature for 5 min, 110 μL of substrate (2 mM L-Tyrosine) was added to each well. Final concentrations of the crude extract, isolated compounds, and positive control ranged from 1.0–100 μg/mL. Incubation commenced for 30 min at room temperature and the enzyme activity was determined by measuring the absorbance at 490 nm. The percentage of tyrosinase inhibition was calculated as follows: Tyrosinase inhibition (%) = [(A − B) − (C − D)]/(A − B) × 100 (1) where A is the absorbance of the control with the enzyme, B is the absorbance of the control without the enzyme, C is the absorbance of the test sample with the enzyme and D is the absorbance of the test sample without the enzyme.

[3] = ORAC assay, peroxyl radical absorbance capacity (ORACROO); conditions: trolox equivalents; AAPH, 37 °C; ± % STDEV
Method: as §1

[4] = Trolox equivalent absorbance capacity (TEAC) assay; conditions: trolox equivalents; absorbance 734 nm, 25 °C
Method: Trolox Equivalent Absorbance Capacity (TEAC) Assay: The total antioxidant capacity of the test samples in terms of TEAC were measured using a previously described method. Absorbance was read at 734 nm at 25 °C in a plate reader and the results were expressed as μM trolox equivalents per milligram dry weight (μM TE/g DW) of the test samples.

Rat liver microsomes = conditions: Fe2+-induced, TBARs, samples screened at 50.00 μg/mL, ± STDEV
[5] = target: Acetylcholinesterase (AChE) (Homo sapiens, UniProt P22303); experiment: biochemical; conditions: 500.00 μg/mL upper concentration limit; read-out: Inhibitory Activities IC50, Acetylcholinesterase (converted)
Sequence of Acetylcholinesterase (AChE) (P22303 32-614, species assumed): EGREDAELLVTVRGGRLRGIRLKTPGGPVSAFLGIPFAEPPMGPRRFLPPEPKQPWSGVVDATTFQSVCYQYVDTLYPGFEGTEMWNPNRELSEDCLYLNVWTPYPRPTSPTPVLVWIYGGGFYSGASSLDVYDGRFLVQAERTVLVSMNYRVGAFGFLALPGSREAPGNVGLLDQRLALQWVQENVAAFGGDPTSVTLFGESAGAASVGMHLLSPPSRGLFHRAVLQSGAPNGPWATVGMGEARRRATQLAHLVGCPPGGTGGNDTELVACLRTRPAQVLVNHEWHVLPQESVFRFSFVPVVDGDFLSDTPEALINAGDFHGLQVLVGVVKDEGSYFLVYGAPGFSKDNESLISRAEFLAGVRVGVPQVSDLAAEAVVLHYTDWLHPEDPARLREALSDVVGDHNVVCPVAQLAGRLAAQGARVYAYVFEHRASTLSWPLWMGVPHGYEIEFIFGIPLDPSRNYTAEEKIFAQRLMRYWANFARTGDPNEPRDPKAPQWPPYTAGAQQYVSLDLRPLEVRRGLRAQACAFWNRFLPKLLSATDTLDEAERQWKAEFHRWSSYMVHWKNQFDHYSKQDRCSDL
Method: Acetylcholinesterase Inhibition Assay: Acetylcholinesterase (AChE) inhibitory activity was measured using Ellman’s method as previously described with minor modifications. AChE catalysis the hydrolysis of acetythiocholine iodide (ACTI as substrate) to thiocholine, which can then react with Ellman’s reagent (DTNB) to produce 5-thio-2-nitrobenzoate (yellow color). In the presence of samples (inhibitors), the release of 5-thio-2-nitrobenzoate (yellow color) is reduced and it is monitored by measuring the absorbance at 450 nm.
In a 96-Well plate, the reaction mixture contains 50 µL of samples pre-incubated with 125 µL of 3 mM 5,5ʹ-Dithiobis-(2-nitrobenzoic acid), and 25 µL AChE (2.0 U/mL), in 50 mM tris-HCl buffer (pH 8.0), with 0.1% bovine serum albumin (BSA) for 15 minutes at 25 °C. Subsequently, 25 µL (15 mM) ACTI was added to the incubation mixture and further incubated for 10 min at 25 °C. […] Absorbance was recorded at 450 nm. The percent AChE inhibitory activity is given by: [A0 − (B − C)]/A0 × 100 (3) where A0 = full enzymatic reaction; B = Activity in the presence of sample; and C = Activity without sample.

[6] = Ferric-ion reducing antioxidant power (FRAP) assay; conditions: ascorbic acid equivalents; absorbance 593 nm; ± % STDEV
Method: Ferric-Ion Reducing Antioxidant Power (FRAP) Assay: Working FRAP reagent was prepared in accordance to the method described previously. Absorbance was measured at 593 nm. L-ascorbic acid was used as a standard and the results were expressed as μM ascorbic acid equivalents per milligram dry weight (μM AAE/g DW) of the test samples.

[7] = target: T1, elastase from porcine pancrease (Sus scrofa, UniProt P00772); experiment: biochemical; conditions: SANA substrate; samples screened at 100.00 μg/mL upper limit; read-out: Inhibitory Activities IC50, Elastase (converted)
T1 construct: from tissue; host or cells: porcine pancreas
T1 sequence (P00772 27-266): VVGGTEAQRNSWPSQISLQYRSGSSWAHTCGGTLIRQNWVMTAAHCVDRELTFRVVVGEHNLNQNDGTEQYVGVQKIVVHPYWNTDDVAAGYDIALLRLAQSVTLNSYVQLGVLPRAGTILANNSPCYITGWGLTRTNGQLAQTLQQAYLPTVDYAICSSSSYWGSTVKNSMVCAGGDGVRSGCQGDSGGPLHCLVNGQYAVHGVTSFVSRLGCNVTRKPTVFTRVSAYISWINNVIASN
Method: Elastase Inhibition Assay: Inhibition of elastase by the test samples was assayed using N-succyl-(Ala)-3-nitroanilide (SANA) as the substrate, monitoring the release of p-nitroanilide by the method described previously. The inhibitory activity determined the intensity of color released during cleavage of SANA by the action of elastase. Briefly, 1 mM SANA was prepared in 0.1 M Tris-HCl buffer pH 8.0 and 200 μL of this solution was added to the 20 μL of sample solution in a 96-Well plate. The mixtures were vortexed and preincubated for 10 min at 25 °C and then 20 μL of elastase from porcine pancrease (0.03 Units/mL) was added. The mixtures were further incubated for 10 min and the absorbance was measured at 410 nm. Methanol was used as control, while oleanolic acid used as a positive control.

| SMILES | Hydroxyl (ORACOH) [1] | Prooxidant (copper-initiated prooxidant activity) [2] [prooxidant units] | Inhibitory Activities IC50, Tyrosinase (mushroom tyrosinase) [µg/mL] | Peroxyl (ORAC peroxyl radical absorbance capacity) [3] [µM TE/g] | TEAC [4] [μM TE/g DW] | Anti-Lipid peroxidation IC50 (Rat liver microsomes) [µg/mL] | IC50 [5] [µM] | FRAP [6] [µMAAE/g] | IC50 [7] [µM] |
| --- | --- | --- | --- | --- | --- | --- | --- | --- | --- |
| CCCC(=O)c1c(O)cc(O)c(CC=C(C)C)c1O [Compound 6, 1-(butanone)-3-prenyl-phloroglucinol] | 18.07± 3.47 × 10^6 µMTE/g | 64.37 ± 0.22 | >100.00 | 13544.93 ± 12.13 | 4316.61 ± 1.06 | 30.80 ± 2.12 | 957 | 1183.52 ± 6.20 | 134 |
| CCCC(=O)c1c(O)cc(O)c(C/C=C(\C)COC(C)=O)c1O [Compound 8, 1-butanone-3-(3-methylbut-2-enylacetate)-phloroglucinol] | 16.70 ± 1.25 × 10^6 µMTE/g | 76.59 ± 0.27 | >100.00 | 14218.17 ± 12.36 | 6757.40 ± 4.69 | 27.56 ± 0.63 | 769 | 1203.02 ± 2.07 | 197 |
| CC(C)=CCOc1cc(O)c(C(=O)C(C)C)c(O)c1 [Compound 5, 1-(2-methylpropanone)-4-O-prennyl-phloroglucinol] | 5.60 ± 0.79 × 10^6 µMTE/g | 12.33 ± 6.62 | >100.00 | 6053.87 ± 18.67 | 2673.62 ± 1.68 | 20.22 ± 2.72 | 957 | 446.64 ± 8.07 | 263 |
